“Also recorded” adds a separate entry of the source.
Test system: Human skin-derived iPS cells (253G1)
Assay type: cell-based

## hemagglutinin [HA complex]
  differentiation into other cells (RPE cell versus cell group with fibroblast-like morphology): <<cell group; also recorded: <cell group
  formation of cell aggregates in three-dimensional layer structure: small cell; also recorded: smaller cell
  intercellular adhesion of the cell aggregates: moderately loosened
  number of cells that differentiated into RPE cells: increased strikingly
  number of fibroblast-like cell groups (undesired cells observed together with RPE cells): decreased
  size of the cell aggregates: became smaller

Reference: patent US20250163370A1, “METHOD FOR INDUCING DIFFERENTIATION OF PLURIPOTENT STEM CELLS INTO RETINAL PIGMENT […]” (OSAKA UNIVERSITY, priority 2022, published 2025)
